Results from article PMC12276038, “Impact of Chelation on Reactivity and Cytotoxicity of Hemilabile Biphenyl Gold(III) N‐Heterocyclic Carbene Complexes” (Chemmedchem, 2025).

Assays:
[1] = Log P determination by reverse-phase HPLC (OECD method); settings: 25% water in acetonitrile (condition B)
[2] = Reaction with chloride ions by 1H NMR; assay type: physicochemical; settings: 1 eq. chloride source, DMSO‐d6/D2O 4/1
Description: Reaction with Chloride Ions: 400 μL of freshly prepared gold complex solution in DMSO‐d6 (5 mM) was added to an NMR tube, followed by 4 μL of 0.5 M NaCl in D2O and 96 μL of D2O. Spectra were acquired straight away (t0 reference) prior to transferring the tubes to an oven set at 37 °C for 72 h. Spectra were then acquired periodically during incubation.

Huh‐7 = experiment: Resazurin cell proliferation assay on Huh-7 cells; assay type: cell-based, human; settings: Huh‐7, 72 h incubation
Text: (§1) Considering the equivalent activities for neutral and cationic analogs, only cationic representatives of the BGC12, BGC18, and BGC19 couples were further screened on two other human cancer cell lines including hepatic carcinoma Huh‐7 and “triple negative” breast adenocarcinoma MDA‐MB‐231 and noncancerous epithelial breast cells MCF‐10 A (Table 1 ).
(§2) HeLa and MDA‐MB‐231 cells were cultivated in DMEM GlutaMax High Glucose supplemented with 10 vol% fetal bovine serum (FBS) and 1 vol% penicillin/streptomycin (50 U/mL and 50 μg/mL respectively). Huh‐7 cells were cultivated in MEM supplemented with 10 vol% FBS, GlutaMax (2 mM), sodium pyruvate (1 mM), nonessential amino acids mix (0.1 mM), and 1 vol% penicillin/streptomycin. MCF10A cells were cultivated in DMEM:F12 GlutaMax supplemented with 1 vol% penicillin/streptomycin, hEGF (20 ng/mL), hydrocortisone ([…]), cholera toxin (100 ng/mL), insulin (10 μg/mL), and 5 vol% horse serum. These media will be further referred as “Complete media.”
(§3) Stock solutions of the gold complexes (20 mM) were prepared in DMSO and kept at −20 °C. Serial dilutions were performed to obtain a set of 8 concentrations with a 2‐fold geometric progression, and were stored at −20 °C as well.
(§4) Cell proliferation assays were performed using resazurin as a viability indicator. Cells were seeded in 96‐well plates (2000 cells/100 μL per well) in the appropriate complete medium and allowed to grow for 24 h. Cells were then treated in triplicate with 8 different concentrations of the complexes, which were added as 100 μL of 2x dilution in culture medium containing no FBS (or containing 5% horse serum for MCF‐10 A cells), thus leading to a 5% concentration of serum in each well. […] The fluorescence intensity of the reduction product resorufin was measured in each well (540 nm excitation, 590 nm reading), and cellular viability was computed as the fluorescence ratio between sample and DMSO control wells after blank subtraction. […]

[3] = Speciation in DMSO-d6/serum-free DMEM by 1H NMR; assay type: physicochemical; settings: 3/1 DMSO‐d6/serum‐free DMEM, immediately after mixing (t < 5 min)
Description: Speciation in DMEM: NMR spectra were recorded on a Bruker Avance II 300 spectrometer (7 T) operating at a ^1H Larmor frequency of 300.13 MHz with a 5 mm observe broadband probe (QNP) z‐axis (^31P/^19 F/^13C/^1H) at 27 °C.
Solutions of the gold complexes (10 mM) were freshly prepared in DMSO‐d6. Samples were prepared by mixing 200 μL of complex solution with 100 μL (resp. 67 μL) of pure DMSO‐d6 and 100 μL (resp. 133 μL) of DMEM GlutaMax High glucose without FBS. ^1H NMR spectra were acquired immediately after mixing (t < 5 min) using a standard zg30 sequence to determine the resonant frequency of water in the tube. Further spectra were acquired using a cpmg‐esgp1d sequence (pulse program available^[ [60] ^]) which carrier frequency (O1P) was tuned to the water peak maximum to ensure optimal water suppression. The Hahn echo time (D20) was left null to acquire a spectrum without the use of T2‐gating. A particular attention was paid to the shimming process as poor shims result in a broader water signal thus leading to an inefficient water suppression.

[4] = test system: mitochondrial membrane potential of HeLa cells; experiment: Mitochondrial membrane polarization JC-10 endpoint assay; assay type: cell-based, human; settings: 10 μM, 1 h or 4 h
Description: Several gold complexes were previously reported to accumulate in mitochondria^[ [50], [51] ^] or even to disrupt their membrane potential.^[ [27], [52], [53] ^] We therefore investigated the possible antimitochondrial activity of BGC19b, chosen as a representative of the most toxic compounds. Briefly, we incubated HeLa cells with BGC19b (1 h or 4 h) or CCCP (4 h) as positive control and monitored the mitochondrial membrane potential through a JC‐10 endpoint assay.
HeLa cells were seeded in a 96‐well plate (2000 cells in 100 μL complete medium per well) and left to adhere. Cells were then treated in triplicate with gold complexes (addition of 100 μL of 2x complex solution in FBS‐free medium) 4 h and 1 h before reading the plate. A control triplicate was treated with CCCP (10 μM) and incubated for 4 h before reading. One hour before reading, 100 μL of supernatant was withdrawn from each well and replaced with JC‐10 in assay buffer A solution (Abcam, 1x, 50 μL). Cells were incubated with the marker for 1 h, and assay buffer B (50 μL) was added. Mitochondrial membrane potential was assessed by computing the ratio of fluorescence intensities between aggregated (λ ex = 540 nm, λ fluo = 590 nm) and nonaggregated JC‐10 (λ ex = 490 nm, λ fluo = 525 nm). […]

[5] = test system: effector caspases 3 and 7 in HeLa cells; experiment: Caspase 3/7 activity and cellular morphology by time lapse videomicroscopy; assay type: cell-based, human; settings: for Rate of apoptosis induction (caspase activation kinetics): BGC19b 1.7 μM, CCCP 10 μM
Description: Apoptosis is a possible outcome of energy shortage in cells following mitochondrial depolarization. We thus monitored the activity of the effector caspases 3 and 7, as a readout of cell apoptosis. The overall cellular morphology was analyzed in parallel.
HeLa cells were seeded in an 8‐well Ibidi slide (4000 cells in 500 μL complete medium per well) and allowed to grow for 24 h. The culture medium was changed to a fresh one (DMEM 5% FBS, 200 μL) containing SiR‐DNA dye (Spirochrome, 1 μM) and CellEvent Caspase 3/7 Green marker (ThermoFisher, 1 μM). […] Cells were monitored for 24 h (20 min step between images) by phase contrast and fluorescence microscopy (Cy5 and EGFP filters for SiR‐DNA and CellEvent Caspase 3/7 markers, respectively). Images were processed using Fiji, and cellular viabilities were extracted as Viability=1−NEGFP/NCy5 where N i denotes the number of cells counted in channel i. Cells were counted in EGFP and Cy5 channels using TrackMate (DoG detector + Simple LAP tracker).^[ [62] ^] The cellular morphology was also manually monitored using the phase contrast channel by tagging cells losing adhesion and displaying blebs.^[ [60] ^]

MCF‐10 A = experiment: Resazurin cell proliferation assay on noncancerous MCF-10A cells; assay type: cell-based, human; settings: MCF‐10 A noncancerous cells, 72 h incubation
Text: as §1, §2, §3, §4

MDA‐MB‐231 = experiment: Resazurin cell proliferation assay on MDA-MB-231 cells; assay type: cell-based, human; settings: MDA‐MB‐231, 72 h incubation
Text: as §1, §2, §3, §4

HeLa cells [6] = experiment: Resazurin viability run in parallel to the JC-10 assay; assay type: cell-based, human; settings: 10 μM, 1 h and 4 h
HeLa cells [7] = experiment: Resazurin cell proliferation assay on HeLa cells; assay type: cell-based, human; settings: 72 h incubation
Text: All new 16 BGC compounds were screened against HeLa cells (cervical adenocarcinoma) to assess their antiproliferative activity through a resazurin cell viability assay.^[ [49] ^] The dose‐response curves were then fitted by a 4‐parameter sigmoid function to extract the median effective concentrations (EC50) shown in Figure 7 .
as §2, §3
Cell proliferation assays were performed using resazurin as a viability indicator. Cells were seeded in 96‐well plates (2000 cells/100 μL per well) in the appropriate complete medium and allowed to grow for 24 h. Cells were then treated in triplicate with 8 different concentrations of the complexes, which were added as 100 μL of 2x dilution in culture medium containing no FBS (or containing 5% horse serum for MCF‐10 A cells), thus leading to a 5% concentration of serum in each well. After 72 h incubation, 110 μL of supernatant was removed from each well, and 10 μL of 500 μM resazurin solution (10x) in PBS were added prior to incubating the cells for 2 h. The fluorescence intensity of the reduction product resorufin was measured in each well (540 nm excitation, 590 nm reading), and cellular viability was computed as the fluorescence ratio between sample and DMSO control wells after blank subtraction. The EC50 value was computed by fitting the data with a 4‐parameter sigmoid σ through nonlinear least square regression, where the EC50 value is directly the c parameter. The regression was performed using curve_fit() function scipy.optimize module in python (scripts available^[ [60] ^]). σ(x,a,b,c,d)=d+a−d/1+(x/c)^b

[8] = set-up: method as in PMID 29277693; settings: read-out: EC50 of CCCP; cited from earlier work
[9] = molecules of known Log(k′w) used for calibration; cited from earlier work
[10] = Solvolysis / stability in DMSO-d6 and DMSO-d6/D2O by 1H NMR; assay type: physicochemical; settings: 24 h incubation at 37 °C in DMSO
Description: Solvolysis Kinetics: 400 μL of freshly prepared gold complex solution in DMSO‐d6 (5 mM) was transferred to an NMR tube. Spectra were acquired straight away (t0 reference) prior to transferring the tubes to an oven set at 37 °C for 72 h. Spectra were then acquired periodically during incubation. The same procedure was repeated with addition of 100 μL of D2O to each tube.
Solvolysis: A concentrated solution of gold complex (≈40 mM) was prepared in 1 mL DMSO‐d6 mixed with 250 μL of D2O and incubated at 37 °C for 24 h. The solution was then extracted 5 times with 3 mL DCM. The DCM phase was recovered and evaporated thoroughly, and the resulting residue was dissolved in MeCN‐d3 and analyzed by ^1H NMR.

## C[n+]1ccn2[c]1[Au-]1([c]3cc(C(C)(C)C)ccc3-c3ccc(C(C)(C)C)c[c]31)[n+]1ccncc1C2.F[P-](F)(F)(F)(F)F [BGC17b]
[1]
  Log P (cationic b, form): 3.5

## COc1cc[n+]2c(c1)Cn1cc[n+](C)[c]1[Au-]21[c]2cc(C(C)(C)C)ccc2-c2ccc(C(C)(C)C)c[c]21.F[P-](F)(F)(F)(F)F [BGC15b]
[2]
  Conversion of cationic to neutral form on addition of chloride: converted back quantitatively and instantaneously
[1]
  Log P (cationic b, form): 4.2

## CC(C)(C)c1ccc2[c](c1)[Au-]1([c]3cc(C(C)(C)C)ccc3-2)[c]2n3ccccc3c[n+]2Cc2cccc[n+]21.F[P-](F)(F)(F)(F)F [BGC19b]
Huh‐7
  EC50: 1400 ± 100 nM
[3]
  Species identified in culture medium mixture: only the neutral complexes were identified
[4]
  Mitochondrial membrane depolarization: significant mitochondrial membrane depolarization
[5]; 1.7 μM
  Induction period before adhesion loss, blebs and caspase 3/7 activation: around 4 h
[5]
  Rate of apoptosis induction (caspase activation kinetics): induces apoptosis much faster than CCCP
[2]
  Conversion of cationic to neutral form on addition of chloride: converted back quantitatively and instantaneously
MCF‐10 A
  EC50: 1600 ± 400 nM
[1]
  Log P (cationic b, form): 4.3
MDA‐MB‐231
  EC50: 2000 ± 100 nM
HeLa cells [6]
  Change in cell viability during JC-10 assay: no significant change in cell viability
HeLa cells [7]
  EC50: 1800 ± 600 nM

## Cc1cc[n+]2c(c1)Cn1cc[n+](C)[c]1[Au-]21[c]2cc(C(C)(C)C)ccc2-c2ccc(C(C)(C)C)c[c]21.F[P-](F)(F)(F)(F)F [BGC14b]
[1]
  Log P (cationic b, form): 4.8

## N#CC(C#N)=NNc1cccc(Cl)c1 [CCCP, reference compound]
[5]
  Rate of apoptosis induction (caspase activation kinetics): occurred at a much slower rate compared to BGC19b
[8]
  EC50: 10 µM

## c1ccc2ccccc2c1 [Naphtalene]
[9]
  log(k’w) of log P standard mix: 3.6

## COc1ccccc1 [Anisole]
[9]
  log(k’w) of log P standard mix: 2.1

## C[n+]1ccn2[c]1[Au-]1([c]3cc(C(C)(C)C)ccc3-c3ccc(C(C)(C)C)c[c]31)[n+]1ccccc1C2.F[P-](F)(F)(F)(F)F [BGC12b]
Huh‐7
  EC50: 1800 ± 100 nM
[3]
  Species identified in culture medium mixture: only the neutral complexes were identified
[10]
  Spectra in MeCN‐d3 after incubation in DMSO and extraction in DCM: unchanged
[2]
  Conversion of cationic to neutral form on addition of chloride: converted back quantitatively and instantaneously
MCF‐10 A
  EC50: 1200 ± 300 nM
[1]
  Log P (cationic b, form): 3.9
MDA‐MB‐231
  EC50: 2900 ± 100 nM
HeLa cells [7]
  EC50: 1800 ± 100 nM

## CCCCCCCCc1ccccc1 [Octylbenzene]
[9]
  log(k’w) of log P standard mix: 6.3

## C[n+]1ccn2[c]1[Au-]1([c]3cc(C(C)(C)C)ccc3-c3ccc(C(C)(C)C)c[c]31)[n+]1c(ccc3ccccc31)C2.F[P-](F)(F)(F)(F)F [BGC16b]
[1]
  Log P (cationic b, form): 4.5
HeLa cells [7]
  EC50: 3200 ± 300 nM

## C[n+]1[c]2n(c3ccccc31)Cc1cccc[n+]1[Au-]21[c]2cc(C(C)(C)C)ccc2-c2ccc(C(C)(C)C)c[c]21.F[P-](F)(F)(F)(F)F [BGC18b]
Huh‐7
  EC50: 2500 ± 400 nM
MCF‐10 A
  EC50: 2800 ± 500 nM
[1]
  Log P (cationic b, form): 4.5
MDA‐MB‐231
  EC50: 4400 ± 800 nM
HeLa cells [7]
  EC50: 2800 ± 700 nM

## Cc1cccc2[n+]1[Au-]1([c]3cc(C(C)(C)C)ccc3-c3ccc(C(C)(C)C)c[c]31)[c]1n(cc[n+]1C)C2.F[P-](F)(F)(F)(F)F [BGC13b]
[1]
  Log P (cationic b, form): 4.4
